This note sets out measurements from patent US5486516A, “Furopyrimidine derivatives” (DowElanco, priority 1993, dated 1996).

In experiment [1] the test system is Pyricularia oryzae (rice blast). Nature of the experiment: whole plant or invertebrate. The format is in vivo. The settings on record: foliar, read-out: RICE BLAST control rating.
The test system of experiment [2] is Southern corn rootworm (Diabrotica undecimpuctata howardi Barber). Nature of the experiment: Mite/insect screen, corn rootworm. It counts as in vivo. The settings on record: Diabrotica, soil, read-out: CRW results (percent mortality); for mortality at 12 ppm: CRW rate 12.00 ppm; for mortality at 24 ppm: CRW rate 24.00 ppm. In outline: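 Compound in acetone/alcohol with emulsifiers, diluted with water; 1 mL applied to 15 g dry sandy soil holding a presoaked corn seed. After 6–12 h drying, five 2-3 instar larvae added, held at 23° C; percent mortality and phytotoxicity scored after standard exposure periods.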

Experiment [3] deals with southern armyworm (Spodopetra eridania Cramer). As to the kind of experiment: Mite/insect screen, Southern armyworm. The conditions noted are these: Spodoptera eridania, sprayed leaves, read-out: SAW results (percent mortality); for mortality at 200 ppm: rate 200 ppm; for mortality at 400 ppm: rate 400 ppm. It counts as in vivo. In outline: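 Compounds in acetone/alcohol with Toximul emulsifiers, diluted in water, sprayed to runoff on squash leaves at 10 psi and dried 1 h. Excised treated leaves fed to southern armyworm larvae in Petri dishes; percent mortality scored after standard exposure.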

Experiment [4] deals with Twospotted spider mites (Tetranychus urticae Koch). As to the kind of experiment: Mite/insect screen, twospotted spider mites. The format is in vivo. The settings on record: Tetranychus urticae, sprayed leaves, read-out: SM results (percent mortality); for mortality at 200 ppm: rate 200 ppm; for mortality at 400 ppm: rate 400 ppm. In outline:
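Squash cotyledons infested with mites were sprayed to runoff at 10 psi with compound in acetone/alcohol plus emulsifiers, diluted in water to the stated concentrations. Percent mortality and phytotoxicity were scored after standard exposure periods.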

Experiment [5] concerns melon aphids (Aphis gossvpii Glover). Nature of the experiment: Mite/insect screen, melon aphids. The format is in vivo. The conditions noted are these: Aphis, sprayed leaves, read-out: MA results (percent mortality); for mortality at 200 ppm: rate 200 ppm; for mortality at 400 ppm: rate 400 ppm. In a few lines: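 Aphids established on squash cotyledons were sprayed to runoff with compound in acetone/alcohol with sulfonate/nonionic emulsifiers, diluted in water to test concentrations. Leaves dried 1 h. Percent mortality scored after standard exposure periods.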

For experiment [6], the system named is Puccinia recondita tritici (leaf rust). Nature of the experiment: Plant pathology screen (Test 1), leaf rust on wheat. The settings on record: in Triticum aestivum, foliar, read-out: LEAF RUST control rating.
Experiment [7] has as its system Pseudoperonospora cubensis (downy mildew). Nature of the experiment: Plant pathology screen (Test 1), downy mildew on squash. The settings on record: foliar, read-out: DOWN MDEW control rating.
Protocol: The test compounds were formulated for application by dissolving 50 mg of the compound into 1.25 ml of solvent. The solvent was prepared by mixing 50 ml of "Tween 20" (polyoxyethylene (20) sorbitan monolaurate emulsifier) with 475 ml of acetone and 475 ml of ethanol. The solvent/compound solution was diluted to 125 ml with deionized water. The resulting formulation contains 400 ppm test chemical. Lower concentrations were obtained by serial dilution with the solvent-surfactant mixture.
The formulated test compounds were applied by foliar spray. The following plant pathogens and their corresponding plants were employed.
The formulated technical compounds were sprayed on all foliar surfaces of the host plants (or cut berry) to past run-off. Single pots of each host plant were placed on raised, revolving pedestals in a fume hood. Test solutions were sprayed on all foliar surfaces. All treatments were allowed to dry and the plants were inoculated with the appropriate pathogens within 2-4 hours.
The effectiveness of test compounds in controlling disease was rated using the following scale.
In experiment [8] the test system is Erysiphe graminis tritici (powdery mildew). As to the kind of experiment: Plant pathology screen (Test 1), powdery mildew on wheat. The conditions noted are these: Blumeria graminis, in Triticum aestivum, foliar, read-out: POWD MDEW control rating.
The subject of experiment [9] is Botrytis cinerea (gray mold). As to the kind of experiment: Plant pathology screen (Test 1), gray mold on grape berries. The conditions noted are these: read-out: GRAY MOLD control rating.

Each structure is given as a SMILES string.

In the case of `COc1ccc(Oc2ncnc3oc(C)c(C)c23)cc1` [Example 65, 5,6-dimethyl-4-(4-methoxyphenoxy)furo[2,3-d]pyrimidine], the pest or weed control at 400 µg/mL in experiment [1] was in the range of 0 to 19%; in experiment [6] it was 0 to 19%; in experiment [7], 0 to 19%; in experiment [8], 20 to 89%; in experiment [9], 0 to 19%. Also, the mortality at 12 ppm in experiment [2] was determined as 0%. The mortality at 24 ppm in experiment [2] amounted to 0%. Besides, the mortality at 200 ppm in [3], in experiment [4] and in experiment [5] was 0% each time. In addition, the mortality at 400 ppm in [3], in experiment [4] and in [5] was 0% throughout.
`Cc1oc2ncnc(Oc3ccccc3F)c2c1C` [Example 66, 4-(2-fluorophenoxy)-5,6-dimethylfuro[2,3-d]pyrimidine]: the pest or weed control at 400 µg/mL in experiment [1] lay within 0 to 19%; in experiment [6] it was 20 to 89%; in experiment [7], 90 to 100%; in experiment [8], 90 to 100%; in experiment [9], 0 to 19%. Further, the mortality at 12 ppm in experiment [2] amounted to 0%. In [2], the mortality at 24 ppm turned out to be 0%. For the same compound, the mortality at 200 ppm in experiment [3], in experiment [4] and in experiment [5] was 0% in each case. Also, the mortality at 400 ppm in [3], in experiment [4] and in experiment [5] was 0% throughout.
`Cc1oc2ncnc(OCC(C)c3ccc(CC(C)C)cc3)c2c1C` (stereo not drawn) [Example 67, 4-[2-[4-(2,2-dimethylethyl)phenyl]-2-methylethoxy]5,6-dimethylfuro[2,3-d]pyrimidine]: the pest or weed control at 400 µg/mL is 90 to 100% in [1]; 20 to 89% in [6]; 20 to 89% in experiment [7]; 20 to 89% in experiment [8]; 20 to 89% in experiment [9]. Also, the mortality at 12 ppm in experiment [2] was 0%. Moreover, the mortality at 24 ppm in experiment [2] was found to be 0%. Also, the mortality at 200 ppm was 0% in [3], 100% in experiment [4] and 100% in experiment [5]. The values for the mortality at 400 ppm in experiment [3], in experiment [4] and in [5] were 0%, 100% and 100%, respectively.
In the case of `Cc1oc2ncnc(NCCc3ccc(OC(F)(F)F)cc3)c2c1C` [Example 68, 5,6-dimethyl-N-[2-[4-(trifluoromethoxy)phenyl]ethyl]furo[2,3-d]pyrimidin-4-amine], the pest or weed control at 400 µg/mL lay within 90 to 100% in experiment [1]; 20 to 89% in experiment [6]; 90 to 100% in experiment [7]; 20 to 89% in experiment [8]; 0 to 19% in experiment [9]. Moreover, the mortality at 24 ppm in experiment [2] turned out to be 0%. The mortality at 400 ppm in experiment [3] was found to be 100%; in [4], 30%; in experiment [5], 90%.
As to `Cc1oc2ncnc(OCCc3ccc(OC(F)(F)F)cc3)c2c1C` [Example 69, 5,6-dimethyl-4-[2-[4-(trifluoromethoxy)phenyl]ethoxy]furo[2,3-d]pyrimidine], the pest or weed control at 400 µg/mL in [1] lay within 20 to 89%; in [6] it was 20 to 89%; in experiment [7], 0 to 19%; in experiment [8], 90 to 100%; in experiment [9] it was 0 to 19%. Besides, the mortality at 24 ppm in experiment [2] came to 0%. Moreover, the results for the mortality at 400 ppm in [3], in experiment [4] and in experiment [5] were 0%, 90% and 90%, respectively.
Consider `Cc1oc2ncnc(OCCc3ccc4c(c3)OC(F)(F)O4)c2c1C` [Example 70], for which the pest or weed control at 400 µg/mL in [1], in [6], in experiment [7], in experiment [8] and in experiment [9] was 0 to 19% each time. In experiment [2], the mortality at 24 ppm is 0%. For the same compound, the mortality at 400 ppm in experiment [3], in experiment [4] and in [5] was 0% in each case.
On to `CCCCCCOc1ccc(CC(CNc2ncnc3oc(C)c(C)c23)c2cccc3ccccc23)cc1` (stereo not drawn) [Example 71, 5,6-dimethyl-N-[3-[4-(n-hexyloxy)phenyl]-2-(1-naphthyl)propyl]furo[2,3-d]pyrimidin-4-amine], for which the pest or weed control at 400 µg/mL in experiment [1], in experiment [6], in experiment [7], in [8] and in experiment [9] was 0 to 19% in each case. In addition, the mortality at 24 ppm in [2] was 0%. The mortality at 400 ppm in experiment [3], in experiment [4] and in experiment [5] was 0% throughout.
Regarding `Cc1oc2ncnc(NCCC3=CCCCC3)c2c1C` [Example 72, 5,6-dimethyl-N-[2-(1-cyclohexenyl)ethyl]furo[2,3-d]pyrimidin-4-amine], the pest or weed control at 400 µg/mL in [1] is 0 to 19%; in experiment [6], 90 to 100%; in [7] it was 90 to 100%; in experiment [8], 20 to 89%; in [9], 0 to 19%. The mortality at 24 ppm in experiment [2] was 0%. For the same compound, the mortality at 400 ppm stood at 60% in [3], 0% in experiment [4] and 100% in experiment [5].
In the case of `Cc1oc2ncnc(NCCc3ccc(OCC(F)(F)F)cc3)c2c1C` [Example 73, 5,6-dimethyl-N-[2-[4-(2,2,2-trifluoroethoxy)phenyl]ethyl]furo[2,3-d]pyrimidin-4-amine], the pest or weed control at 400 µg/mL is 0 to 19% in experiment [1]; 20 to 89% in experiment [6]; 20 to 89% in experiment [7]; 0 to 19% in [8]; 0 to 19% in [9]. For the same compound, in experiment [2], the mortality at 24 ppm was determined as 0%. Besides, the results for the mortality at 400 ppm in experiment [3], in [4] and in [5] were 100%, 0% and 90%, respectively.
For `CCCC(C)(CC)Oc1ccc(CCOc2ncnc3oc(C)c(C)c23)cc1` (stereo not drawn) [Example 74, 5,6-dimethyl-4-[2-[4-(1-ethyl-1-methylbutoxy)phenyl]ethoxy]furo[2,3-d]pyrimidine], the pest or weed control at 400 µg/mL was 0 to 19% in [1]; 0 to 19% in [6]; 20 to 89% in experiment [7]; 0 to 19% in experiment [8]; 0 to 19% in [9]. The mortality at 24 ppm in [2] is 0%. Moreover, the mortality at 400 ppm turned out to be 0% in experiment [3], 100% in experiment [4] and 90% in experiment [5].
Turning to `Cc1oc2ncnc(OCCc3ccc4c(c3)OCCO4)c2c1C` [Example 75, 5,6-dimethyl-4-[2-[benzo[b]-1,4-dioxan-6-yl]ethoxy]furo[2,3-d]pyrimidine], the pest or weed control at 400 µg/mL fell in the range of 0 to 19% in experiment [1]; 0 to 19% in [6]; 20 to 89% in experiment [7]; 0 to 19% in experiment [8]; 0 to 19% in experiment [9]. In experiment [2], the mortality at 24 ppm was found to be 0%. In addition, the mortality at 400 ppm came out at 40% in experiment [3], 0% in experiment [4] and 0% in experiment [5].
For the compound `Cc1oc2ncnc(OCCc3ccccc3C(F)(F)F)c2c1C` [Example 76, 5,6-dimethyl-4-[2-[2(trifluoromethyl)phenyl]ethoxy]furo[2,3-d]pyrimidine], the pest or weed control at 400 µg/mL was 0 to 19% in experiment [1]; 0 to 19% in [6]; 20 to 89% in [7]; 90 to 100% in experiment [8]; 0 to 19% in experiment [9]. Moreover, the mortality at 24 ppm in experiment [2] was 60%. Moreover, the mortality at 400 ppm in experiment [3], in [4] and in experiment [5] was 0% each time.
